According to patent publication US7297535B2, “Use of the human LRP/MVP promotor for a vector that can be induced by therapy” (Max-Delbrück-Centrum Für Molekulare Medizin, priority 2000, dated 2007):

Test system: LRP/MVP promoter
Assay: Inducibility of LRP/MVP promoter by cytostatics (CAT expression)
Assay type: cell-based, human
Details: for inducibility of the human LRP/MVP gene promoter by therapy-relevant factors: general statement, no details given

Question: Which “inducibility of the human LRP/MVP gene promoter by therapy-relevant factors” value does the source give for `CC[C@]1(O)C[C@H]2CN(CCc3c([nH]c4ccccc34)[C@@](C(=O)OC)(c3cc4c(cc3OC)N(C=O)[C@H]3[C@@](O)(C(=O)OC)[C@H](OC(C)=O)[C@]5(CC)C=CCN6CC[C@]43[C@@H]65)C2)C1` [vincristin] here?
Answer: Its value is “inductors”.

Question: What does the source list for `O=c1[nH]cc(F)c(=O)[nH]1` [5-fluoruracil]?
Answer: induction of LRP/MVP-promoter-mediated CAT expression (24 h after cytostatic administration, FIG. 2): induced; inducibility of the human LRP/MVP gene promoter by therapy-relevant factors: inductors

Question: `COc1cccc2c1C(=O)c1c(O)c3c(c(O)c1C2=O)C[C@@](O)(C(=O)CO)C[C@@H]3O[C@H]1C[C@H](N)[C@H](O)[C@H](C)O1` [adriamycin] was tested. Which “inducibility of the human LRP/MVP gene promoter by therapy-relevant factors” value did it give?
Answer: The value was “inductors”.

Question: Which “inducibility of the human LRP/MVP gene promoter by therapy-relevant factors” value does the source give for `N.N.[Cl][Pt][Cl]` [cisplatin] here?
Answer: Its value is “inductors”.
